Test results from US7977375B2, “Antibiotic and method of production thereof” (Helmholtz-Zentrum Für Infektionsforschung GmbH, priority 2004, dated 2011).
≈ marks a conversion by molar mass, not a printed value.

Experiments:
[1] = test system: Staphylococcus aureus MRSA 3; assay: kinetics of growth at sub-MIC concentrations (FIG. 1B); type: cell-based; settings: 1 or 4 μg/ml
Description: (§1) Investigation of the bacteriostatic activity of 7-O-malonyl macrolactin A required testing the effects of sub-MIC concentrations. […] 24 hours after treatment, the titre of viable cells was reduced by a factor of 100 as compared to the control without 7-O-malonyl macrolactin A.
(§2) • FIG. 1A y-axis: Log CFU (Colony Forming Units) Cells/ml • x-axis: Time (HRS) • FIG. 1B y-axis: Log CFU (Colony Forming Units) Cells/ml • x-axis: Time (HRS) • FIG. 1C: y-axis: Log CFU (Colony Forming Units) Cells/ml • x-axis: Time (HRS) • FIG. 1D: y-axis: Log CFU (Colony Forming Units) Cells/ml • x-axis: Time (HRS) • FIG. 1E: y-axis: Log CFU (Colony Forming Units) Cells/ml • x-axis: Time (HRS) • FIG. 1F: y-axis: Log CFU (Colony Forming Units) Cells/ml • x-axis: Time (HRS) • FIG. 5A: y-axis: % Inhibition • x-axis Concentration μg/ml • FIG. 5B: y-axis: % Inhibition • x-axis Concentration μg/ml

[2] = test system: L929 mouse fibroblast cells; assay: inhibition of proliferation, CyQUANT cell proliferation test; type: cell-based; settings: Mus musculus, L929, 120 h, 5 days
E. faecalis VRAS E305 = assay: agar diffusion method, inhibition zone; type: cell-based, Enterococcus faecalis; settings: E. faecalis VRAS E305, MH agar, 18 hours at 37° C., per disk 10 μl crude extract, 50 μg macrolactin, 78 μg erythromycin, 30 μg vancomycin, 10 μg ampicillin
Description: (§3) The agar diffusion method employing Mueller-Hinton (MH) agar (Difco Laboratories) was used to determine effectiveness against bacteria and yeasts. Sterile paper disks (Schleicher & Schüell, Germany) were seeded with 10 μl crude extract or with a solution of purified macrolactin (final compound concentration on the disk 50 μg) and then placed on the surface of MH-agar plates that had been seeded beforehand with a suspension of overnight culture of the test microorganisms at a concentration of 10^5 cells/ml.

E. faecalis ATCC 29212 [3] = assay: agar diffusion method, inhibition zone; type: cell-based, Enterococcus faecalis; settings: Enterococcus faecalis, ATCC29212; E. faecalis ATCC 29212; MH agar, 18 hours at 37° C.; per disk 10 μl crude extract, 50 μg macrolactin, 78 μg erythromycin, 30 μg vancomycin, 10 μg ampicillin
Description: as §3

[4] = test system: Enterococcus faecium VRAR E315; assay: kinetics of growth at sub-MIC concentrations (FIG. 1D); type: cell-based; settings: E. faecium E315; 4 or 16 μg/ml; four hours following cultivation
Source text: as §2

B. cepacia SCV 141 = assay: agar diffusion method, inhibition zone; type: cell-based, Burkholderia cepacia; settings: 18 hours at 37° C., per disk 10 μl crude extract, 50 μg macrolactin, 78 μg erythromycin, 10 μg ampicillin
Description: as §3
The B. cepacia strain used, which is a clinical isolate from a cystic fibrosis patient, forms small colonies (SCV 141).

[5] = test system: Enterococcus faecalis ATCC 29212; assay: kinetics of growth at sub-MIC concentrations (FIG. 1C); type: cell-based; settings: E. faecalis ATCC 29212; 4 or 16 μg/ml; four hours following cultivation
Source text: as §2

[6] = test system: Candida parapsilosis DSM5784; assay: MIC / MBC in liquid culture; type: cell-based; settings: Lodderomyces parapsilosis, read-out: MIC (minimal inhibitory concentration)
[7] = test system: Candida albicans DSM 11225; assay: MIC / MBC in liquid culture; type: cell-based; settings: DSM11225, read-out: MIC (minimal inhibitory concentration)
E. faecalis ATCC 29212 [8] = assay: MIC / MBC in liquid culture; type: cell-based, Enterococcus faecalis
MRSA 3 = assay: MIC / MBC in liquid culture; type: cell-based, Staphylococcus aureus; settings: MRSA 3
[9] = test system: Staphylococcus aureus (#); assay: kinetics of growth at sub-MIC concentrations (FIG. 1A); type: cell-based; settings: S. aureus #, 1 or 4 μg/ml
Description: as §1, §2

CC1CCC/C=C/C=C/C(O)CC(O)C/C=C\C=C\C(OC(=O)CC(=O)O)C/C=C/C=C\C(=O)O1 (stereo not shown) [7-O-malonyl macrolactin A]
titre of viable cells reduced by a factor, compared to control ([1]; 24 hours after treatment): 100 | effect on kinetics of growth ([1]; after 4 hours): almost completely inhibited | inhibition at 3.9 µg/mL ([2]; compound concentration 3.9 μg/ml): 0% | inhibition at 7.8 µg/mL ([2]; compound concentration 7.8 μg/ml): 0% | inhibition at 15.6 µg/mL ([2]; compound concentration 15.6 μg/ml): ~32% | inhibition at 31.25 µg/mL ([2]; compound concentration 31.25 μg/ml): 80% | inhibition at 56.5 µg/mL ([2]; compound concentration 56.5 μg/ml): 86% | inhibition at 125 µg/mL ([2]; compound concentration 125 μg/ml): 84% | Inhibition zone (E. faecalis VRAS E305): produced an inhibition zone | zone of inhibition at 50 µg/disc (E. faecalis VRAS E305; Enterococcus faecalis, VRASE305): 15 mm | zone of inhibition at 50 µg/disc (E. faecalis ATCC 29212 [3]): 25 mm | effect on kinetics of growth [4]: almost completely inhibited | zone of inhibition at 50 µg/disc (B. cepacia SCV 141; Burkholderia cepacia, SCV141, MH agar): 15 mm | Inhibition zone (B. cepacia SCV 141; MH agar): produced an inhibition zone | effect on kinetics of growth [5]: inhibited the growth | MIC [6]: 128 µg/mL (≈ 262 µM) | MIC [7]: > 128 µg/mL | MIC (minimal inhibitory concentration) (E. faecalis ATCC 29212 [8]; E. faecalis ATCC 29212): 128 µg/mL (≈ 262 µM) | MBC (E. faecalis ATCC 29212 [8]; Enterococcus faecalis, ATCC29212, E. faecalis ATCC 29212, read-out: MBC (minimal bacteriostatic or fungistatic concentration)): 4 µg/mL (≈ 8.19 µM) | MIC (E. faecalis ATCC 29212 [8]; Enterococcus faecalis, ATCC29212, E. faecalis ATCC 29212, read-out: MIC (minimal inhibitory concentration)): > 128 µg/mL | MIC (minimal inhibitory concentration) (MRSA 3): >128 µg/mL | MBC (MRSA 3; Staphylococcus aureus, pronounced inhibition of growth, read-out: MBC (minimal bacteriostatic or fungistatic concentration)): 4 µg/mL (≈ 8.19 µM) | MIC (MRSA 3; Staphylococcus aureus, read-out: MIC (minimal inhibitory concentration)): > 128 µg/mL | effect on kinetics of growth ([9]; far below the MIC, first 4 hours): kills off this bacterium within the first 4 hours following dosage | growth reduced by a factor ([9]; subsequent cultivation time): 10
